From ChEMBL document CHEMBL1142865, “22-Alkyl-20-epi-1alpha,25-dihydroxyvitamin D3 compounds of superagonistic activity: syntheses, biological activities and interaction with the receptor” (J Med Chem, 2007)
pEC50: −log10 of the molar value.

Legend:
Rattus norvegicus [1] = experiment: Effect on intestinal calcium transport in low-calcium diet fed rat assessed as serosal:mucosal ratio of calcium at 325 pmol/day, ip after 7 days; type: functional
Rattus norvegicus [2] = experiment: Effect on intestinal calcium transport in low-calcium diet fed rat assessed as serosal:mucosal ratio of calcium at 650 pmol/day, ip after 7 days; type: functional
Rattus norvegicus [3] = experiment: Effect on bone calcium mobilization in low-calcium diet fed rat assessed by measuring at 650 pmol/day, ip after 7 days; type: functional
Rattus norvegicus [4] = experiment: Effect on bone calcium mobilization in low-calcium diet fed rat at 325 pmol/day, ip after 7 days; type: functional
Rattus norvegicus [5] = experiment: Effect on intestinal calcium transport in low-calcium diet fed rat assessed as serosal:mucosal ratio of calcium at 100 pmol/day, ip after 7 days; type: functional
Rattus norvegicus [6] = experiment: Effect on bone calcium mobilization in low-calcium diet fed rat at 100 pmol/day, ip after 7 days; type: functional
Vitamin D3 receptor [7] = target: T1, Vitamin D3 receptor (Homo sapiens, UniProt P11473); experiment: Induction of transactivation of human VDR responsive gene in COS7 cells by rat osteopontin luciferase reporter gene assay; type: cell-based, COS-7
T1 sequence (P11473 whole entry): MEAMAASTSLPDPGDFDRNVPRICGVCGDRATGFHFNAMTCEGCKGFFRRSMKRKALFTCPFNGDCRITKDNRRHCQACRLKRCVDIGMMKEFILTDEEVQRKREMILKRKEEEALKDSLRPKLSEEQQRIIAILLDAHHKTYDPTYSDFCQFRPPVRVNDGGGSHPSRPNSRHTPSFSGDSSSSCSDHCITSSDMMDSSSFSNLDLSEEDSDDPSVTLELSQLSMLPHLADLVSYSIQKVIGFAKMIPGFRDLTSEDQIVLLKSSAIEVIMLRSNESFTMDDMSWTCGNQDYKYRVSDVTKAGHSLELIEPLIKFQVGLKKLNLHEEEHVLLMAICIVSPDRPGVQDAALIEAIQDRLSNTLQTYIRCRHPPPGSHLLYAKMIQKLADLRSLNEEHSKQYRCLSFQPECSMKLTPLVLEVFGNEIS

Vitamin D3 receptor [8] = target: T2, Vitamin D3 receptor (Bos taurus, UniProt Q28037); experiment: Displacement of [3H]1,25-(OH)2D3 from vitamin D receptor in bovine thymus
T2 sequence (Q28037 whole entry): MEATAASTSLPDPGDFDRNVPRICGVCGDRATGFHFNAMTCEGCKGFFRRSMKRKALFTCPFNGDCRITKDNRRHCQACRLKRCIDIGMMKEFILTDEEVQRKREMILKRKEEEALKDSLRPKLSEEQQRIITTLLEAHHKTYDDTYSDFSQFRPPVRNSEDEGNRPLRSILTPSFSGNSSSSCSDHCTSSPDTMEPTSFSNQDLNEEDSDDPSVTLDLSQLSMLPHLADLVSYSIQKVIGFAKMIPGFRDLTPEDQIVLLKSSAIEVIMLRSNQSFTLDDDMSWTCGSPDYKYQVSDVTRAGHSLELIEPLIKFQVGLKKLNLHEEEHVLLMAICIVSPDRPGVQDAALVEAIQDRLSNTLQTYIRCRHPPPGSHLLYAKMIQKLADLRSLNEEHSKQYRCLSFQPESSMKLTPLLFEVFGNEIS

HL-60 = experiment: Induction of human HL60 cell differentiation to monocytes by NBT reduction assay; type: functional, cell-based

| pEC50 (Vitamin D3 receptor [7]) | pEC50 (Vitamin D3 receptor [8]) | pEC50 (HL-60) | SMILES | Ratio (Rattus norvegicus [1]) | Ratio (Rattus norvegicus [2]) | Activity (Rattus norvegicus [3]) | Activity (Rattus norvegicus [4]) | Ratio (Rattus norvegicus [5]) | Activity (Rattus norvegicus [6]) |
| --- | --- | --- | --- | --- | --- | --- | --- | --- | --- |
| 11.52 | 10.51 | 10.74 | C=C1/C(=C\C=C2/CCC[C@@]3(C)C2CC[C@@H]3[C@@H](C)[C@H](C)CCC(C)(C)O)C[C@@H](O)C[C@@H]1O (stereo partly drawn) | 8.2 | 12.2 | 8.4 | 8.1 | 7 | 5 |
| 11.70 | 10.74 | 10.24 | C=C1/C(=C\C=C2/CCC[C@@]3(C)C2CC[C@@H]3[C@@H](C)[C@H](CC)CCC(C)(C)O)C[C@@H](O)C[C@@H]1O (stereo partly drawn) | 6.3 | 8.5 | 6.2 | 5 | 5.7 | 3.9 |
| 9.70 | 9.05 | 8.98 | C=C1/C(=C\C=C2/CCC[C@@]3(C)C2CC[C@@H]3[C@@H](C)[C@H](CCCC)CCC(C)(C)O)C[C@@H](O)C[C@@H]1O (stereo partly drawn) | – | – | – | – | – | – |
| – | – | – | C=C1/C(=C\C=C2/CCC[C@]3(C)[C@@H]([C@H](C)CCCC(C)(C)O)CC[C@@H]23)C[C@@H](O)C[C@@H]1O [CALCITRIOL] | – | – | – | 5.5 | – | 4.6 |
